From the supplement of paper PMC12076712

Key:
Experiment in all cases: pIC50, kinobeads binding competition
Settings in all cases: cell material: Jurkat lysate
NLK = target: T1, NLK (UniProt Q9UBE8)
T1 sequence (whole entry): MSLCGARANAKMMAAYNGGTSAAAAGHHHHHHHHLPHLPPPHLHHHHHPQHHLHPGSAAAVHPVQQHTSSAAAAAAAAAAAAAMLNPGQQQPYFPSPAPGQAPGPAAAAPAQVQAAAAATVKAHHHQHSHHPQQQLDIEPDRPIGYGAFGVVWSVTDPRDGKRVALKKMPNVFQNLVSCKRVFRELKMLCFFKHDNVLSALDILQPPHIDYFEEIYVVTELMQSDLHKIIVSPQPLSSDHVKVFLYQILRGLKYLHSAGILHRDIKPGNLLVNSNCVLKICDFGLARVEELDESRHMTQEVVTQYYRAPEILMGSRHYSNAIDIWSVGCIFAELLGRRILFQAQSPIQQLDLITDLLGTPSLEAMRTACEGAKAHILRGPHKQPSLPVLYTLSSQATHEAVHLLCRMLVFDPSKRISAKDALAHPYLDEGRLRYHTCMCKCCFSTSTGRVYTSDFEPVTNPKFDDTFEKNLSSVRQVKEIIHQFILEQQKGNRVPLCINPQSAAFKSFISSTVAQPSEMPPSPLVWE

UniProt Q8IW41 = target: T2, UniProt Q8IW41
T2 sequence (whole entry): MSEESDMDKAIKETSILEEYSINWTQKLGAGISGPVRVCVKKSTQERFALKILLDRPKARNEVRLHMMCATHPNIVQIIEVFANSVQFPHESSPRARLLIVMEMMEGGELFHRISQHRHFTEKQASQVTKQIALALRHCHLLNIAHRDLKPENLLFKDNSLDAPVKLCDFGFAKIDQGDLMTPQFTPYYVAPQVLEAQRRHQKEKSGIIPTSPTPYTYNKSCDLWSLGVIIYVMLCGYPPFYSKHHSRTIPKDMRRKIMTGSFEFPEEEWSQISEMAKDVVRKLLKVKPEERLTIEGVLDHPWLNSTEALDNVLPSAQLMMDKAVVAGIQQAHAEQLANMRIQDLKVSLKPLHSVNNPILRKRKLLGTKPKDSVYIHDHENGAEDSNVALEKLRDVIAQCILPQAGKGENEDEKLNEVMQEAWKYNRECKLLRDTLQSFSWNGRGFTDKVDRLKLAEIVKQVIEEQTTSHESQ

UniProt O94804 = target: UniProt O94804
Sequence of UniProt O94804 (O94804 whole entry, looked up): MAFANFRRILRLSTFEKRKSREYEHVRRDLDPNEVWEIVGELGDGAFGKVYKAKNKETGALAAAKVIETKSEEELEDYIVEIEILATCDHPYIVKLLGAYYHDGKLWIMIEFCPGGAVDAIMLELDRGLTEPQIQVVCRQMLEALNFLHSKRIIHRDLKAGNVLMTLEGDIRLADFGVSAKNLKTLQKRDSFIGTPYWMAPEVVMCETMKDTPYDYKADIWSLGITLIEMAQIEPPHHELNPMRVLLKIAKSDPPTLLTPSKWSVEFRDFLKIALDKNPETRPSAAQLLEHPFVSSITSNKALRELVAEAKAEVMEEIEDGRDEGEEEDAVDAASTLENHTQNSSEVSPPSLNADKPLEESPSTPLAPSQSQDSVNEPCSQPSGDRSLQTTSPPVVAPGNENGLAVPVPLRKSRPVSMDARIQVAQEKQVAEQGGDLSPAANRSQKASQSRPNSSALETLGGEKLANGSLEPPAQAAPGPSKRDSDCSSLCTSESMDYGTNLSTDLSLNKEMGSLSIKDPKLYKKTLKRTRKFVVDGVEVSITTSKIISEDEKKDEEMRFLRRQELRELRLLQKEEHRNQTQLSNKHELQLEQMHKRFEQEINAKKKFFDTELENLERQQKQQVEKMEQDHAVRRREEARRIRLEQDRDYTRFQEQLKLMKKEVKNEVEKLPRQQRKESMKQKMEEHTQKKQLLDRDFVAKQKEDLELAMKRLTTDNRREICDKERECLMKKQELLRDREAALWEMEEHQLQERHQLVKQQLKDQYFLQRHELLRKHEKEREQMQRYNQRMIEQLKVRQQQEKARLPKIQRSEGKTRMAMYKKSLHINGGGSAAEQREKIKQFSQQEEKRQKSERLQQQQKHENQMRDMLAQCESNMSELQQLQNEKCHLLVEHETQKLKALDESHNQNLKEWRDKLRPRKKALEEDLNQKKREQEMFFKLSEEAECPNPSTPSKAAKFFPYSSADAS

MARK2 = MARK2 (UniProt Q7KZI7)
Sequence of MARK2 (Q7KZI7 whole entry): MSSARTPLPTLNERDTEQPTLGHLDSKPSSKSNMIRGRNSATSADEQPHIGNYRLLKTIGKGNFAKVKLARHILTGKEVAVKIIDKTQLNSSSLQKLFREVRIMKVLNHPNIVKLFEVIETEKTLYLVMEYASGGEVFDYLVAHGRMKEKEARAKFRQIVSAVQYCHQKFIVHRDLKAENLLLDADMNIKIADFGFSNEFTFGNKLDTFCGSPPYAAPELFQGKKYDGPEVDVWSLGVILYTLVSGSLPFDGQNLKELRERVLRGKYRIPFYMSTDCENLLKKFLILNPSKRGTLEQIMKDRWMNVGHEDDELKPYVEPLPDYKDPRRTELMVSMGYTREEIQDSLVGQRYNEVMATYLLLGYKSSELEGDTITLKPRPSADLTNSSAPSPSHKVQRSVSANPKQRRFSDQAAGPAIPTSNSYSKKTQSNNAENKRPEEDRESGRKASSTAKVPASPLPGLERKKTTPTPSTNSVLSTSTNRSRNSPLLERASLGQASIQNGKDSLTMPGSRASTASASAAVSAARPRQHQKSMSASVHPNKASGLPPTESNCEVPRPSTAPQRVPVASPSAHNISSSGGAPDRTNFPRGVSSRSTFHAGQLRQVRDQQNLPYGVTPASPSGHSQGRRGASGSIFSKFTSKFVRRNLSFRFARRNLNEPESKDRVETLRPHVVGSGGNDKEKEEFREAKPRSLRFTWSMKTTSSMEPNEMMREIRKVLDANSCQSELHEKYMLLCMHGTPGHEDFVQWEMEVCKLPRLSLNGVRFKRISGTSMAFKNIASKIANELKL

EIF2AK4 = EIF2AK4 (UniProt Q9P2K8)
Sequence of EIF2AK4 (Q9P2K8 whole entry): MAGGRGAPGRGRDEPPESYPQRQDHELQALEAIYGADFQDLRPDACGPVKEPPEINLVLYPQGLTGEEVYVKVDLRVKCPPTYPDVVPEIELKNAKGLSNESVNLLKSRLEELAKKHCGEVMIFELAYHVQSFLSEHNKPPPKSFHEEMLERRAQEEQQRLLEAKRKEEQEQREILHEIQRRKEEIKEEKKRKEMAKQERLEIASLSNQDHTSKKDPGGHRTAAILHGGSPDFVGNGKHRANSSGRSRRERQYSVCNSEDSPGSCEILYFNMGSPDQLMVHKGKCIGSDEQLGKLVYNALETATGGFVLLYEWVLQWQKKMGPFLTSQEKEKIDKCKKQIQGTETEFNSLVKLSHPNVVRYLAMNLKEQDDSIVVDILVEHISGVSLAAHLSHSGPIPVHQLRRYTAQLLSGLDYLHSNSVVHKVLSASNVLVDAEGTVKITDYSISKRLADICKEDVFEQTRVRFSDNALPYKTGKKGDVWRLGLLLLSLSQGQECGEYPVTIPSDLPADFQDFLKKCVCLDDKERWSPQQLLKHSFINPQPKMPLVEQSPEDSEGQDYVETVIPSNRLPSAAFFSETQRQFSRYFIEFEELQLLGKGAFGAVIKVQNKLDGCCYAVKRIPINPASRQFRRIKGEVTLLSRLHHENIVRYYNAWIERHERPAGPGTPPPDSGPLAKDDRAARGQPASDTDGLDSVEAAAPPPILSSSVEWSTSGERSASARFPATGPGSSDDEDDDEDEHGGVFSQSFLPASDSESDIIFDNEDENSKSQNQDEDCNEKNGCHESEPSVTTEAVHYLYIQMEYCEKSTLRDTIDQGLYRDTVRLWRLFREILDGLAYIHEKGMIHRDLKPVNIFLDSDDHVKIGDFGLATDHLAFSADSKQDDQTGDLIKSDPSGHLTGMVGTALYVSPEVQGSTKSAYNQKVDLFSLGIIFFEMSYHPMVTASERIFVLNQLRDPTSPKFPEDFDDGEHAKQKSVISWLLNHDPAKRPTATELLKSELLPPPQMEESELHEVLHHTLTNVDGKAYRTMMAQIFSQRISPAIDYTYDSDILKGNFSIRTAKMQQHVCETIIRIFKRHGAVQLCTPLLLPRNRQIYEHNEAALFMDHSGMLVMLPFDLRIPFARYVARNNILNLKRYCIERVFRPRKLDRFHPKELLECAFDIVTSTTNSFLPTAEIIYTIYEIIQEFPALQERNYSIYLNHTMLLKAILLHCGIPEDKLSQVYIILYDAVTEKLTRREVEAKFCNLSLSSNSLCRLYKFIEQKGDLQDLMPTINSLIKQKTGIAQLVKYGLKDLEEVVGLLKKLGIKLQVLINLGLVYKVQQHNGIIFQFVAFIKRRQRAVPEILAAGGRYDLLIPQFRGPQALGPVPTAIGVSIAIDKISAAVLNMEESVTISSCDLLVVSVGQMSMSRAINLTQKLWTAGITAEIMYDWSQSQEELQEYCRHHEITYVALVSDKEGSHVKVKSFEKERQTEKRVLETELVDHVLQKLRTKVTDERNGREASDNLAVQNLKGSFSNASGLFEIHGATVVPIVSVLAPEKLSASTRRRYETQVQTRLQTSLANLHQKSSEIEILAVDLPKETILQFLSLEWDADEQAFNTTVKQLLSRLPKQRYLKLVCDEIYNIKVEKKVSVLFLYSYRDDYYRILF

PHKG2 = target: T3, PHKG2 (UniProt P15735)
T3 sequence (whole entry): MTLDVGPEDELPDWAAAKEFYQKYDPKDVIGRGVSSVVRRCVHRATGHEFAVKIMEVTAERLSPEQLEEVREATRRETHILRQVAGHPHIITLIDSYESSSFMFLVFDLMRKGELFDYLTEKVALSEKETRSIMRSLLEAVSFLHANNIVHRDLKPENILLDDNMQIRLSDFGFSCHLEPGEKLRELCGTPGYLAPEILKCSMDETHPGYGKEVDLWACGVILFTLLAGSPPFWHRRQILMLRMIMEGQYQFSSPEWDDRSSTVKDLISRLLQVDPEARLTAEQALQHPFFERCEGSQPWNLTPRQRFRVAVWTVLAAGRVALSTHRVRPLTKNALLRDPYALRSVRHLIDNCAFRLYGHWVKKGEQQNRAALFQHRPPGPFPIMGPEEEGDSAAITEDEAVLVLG

UniProt Q8TF76 = target: T4, UniProt Q8TF76
T4 sequence (whole entry): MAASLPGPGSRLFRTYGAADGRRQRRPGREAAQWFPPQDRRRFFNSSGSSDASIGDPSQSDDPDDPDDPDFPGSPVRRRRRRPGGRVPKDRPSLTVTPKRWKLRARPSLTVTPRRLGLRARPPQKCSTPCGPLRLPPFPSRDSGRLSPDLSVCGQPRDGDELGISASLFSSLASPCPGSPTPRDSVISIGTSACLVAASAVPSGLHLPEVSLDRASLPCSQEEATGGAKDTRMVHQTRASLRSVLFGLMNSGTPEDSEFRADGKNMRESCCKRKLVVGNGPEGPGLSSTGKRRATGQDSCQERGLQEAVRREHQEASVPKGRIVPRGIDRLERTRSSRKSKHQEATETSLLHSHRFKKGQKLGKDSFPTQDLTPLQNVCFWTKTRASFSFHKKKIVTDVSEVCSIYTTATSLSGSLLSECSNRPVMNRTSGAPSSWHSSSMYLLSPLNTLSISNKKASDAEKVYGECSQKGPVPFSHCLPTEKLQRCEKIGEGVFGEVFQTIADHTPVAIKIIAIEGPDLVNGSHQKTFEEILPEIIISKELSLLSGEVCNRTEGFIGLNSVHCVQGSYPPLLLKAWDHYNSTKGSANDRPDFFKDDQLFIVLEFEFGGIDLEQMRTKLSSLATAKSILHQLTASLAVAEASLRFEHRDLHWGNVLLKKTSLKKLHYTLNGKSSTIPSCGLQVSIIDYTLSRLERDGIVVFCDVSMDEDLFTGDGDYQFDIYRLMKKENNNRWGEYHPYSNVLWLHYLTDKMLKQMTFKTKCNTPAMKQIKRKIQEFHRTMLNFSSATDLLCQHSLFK

CAMKK1 = CAMKK1 (UniProt Q8N5S9)
Sequence of CAMKK1 (Q8N5S9 whole entry, looked up): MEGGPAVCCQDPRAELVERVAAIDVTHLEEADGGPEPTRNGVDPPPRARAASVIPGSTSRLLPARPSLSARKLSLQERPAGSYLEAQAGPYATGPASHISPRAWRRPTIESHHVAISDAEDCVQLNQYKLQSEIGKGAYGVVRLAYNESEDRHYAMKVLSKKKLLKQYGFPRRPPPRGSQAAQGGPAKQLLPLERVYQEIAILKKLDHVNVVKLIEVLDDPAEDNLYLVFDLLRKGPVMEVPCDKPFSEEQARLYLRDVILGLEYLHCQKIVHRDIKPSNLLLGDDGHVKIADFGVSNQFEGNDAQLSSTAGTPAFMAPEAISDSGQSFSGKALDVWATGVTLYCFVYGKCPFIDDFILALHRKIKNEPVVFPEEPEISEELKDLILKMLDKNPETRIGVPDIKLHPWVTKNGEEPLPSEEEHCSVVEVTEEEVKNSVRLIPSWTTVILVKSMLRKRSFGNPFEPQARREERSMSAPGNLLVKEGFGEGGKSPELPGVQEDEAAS

FGR = FGR (UniProt P09769)
Sequence of FGR (P09769 whole entry, looked up): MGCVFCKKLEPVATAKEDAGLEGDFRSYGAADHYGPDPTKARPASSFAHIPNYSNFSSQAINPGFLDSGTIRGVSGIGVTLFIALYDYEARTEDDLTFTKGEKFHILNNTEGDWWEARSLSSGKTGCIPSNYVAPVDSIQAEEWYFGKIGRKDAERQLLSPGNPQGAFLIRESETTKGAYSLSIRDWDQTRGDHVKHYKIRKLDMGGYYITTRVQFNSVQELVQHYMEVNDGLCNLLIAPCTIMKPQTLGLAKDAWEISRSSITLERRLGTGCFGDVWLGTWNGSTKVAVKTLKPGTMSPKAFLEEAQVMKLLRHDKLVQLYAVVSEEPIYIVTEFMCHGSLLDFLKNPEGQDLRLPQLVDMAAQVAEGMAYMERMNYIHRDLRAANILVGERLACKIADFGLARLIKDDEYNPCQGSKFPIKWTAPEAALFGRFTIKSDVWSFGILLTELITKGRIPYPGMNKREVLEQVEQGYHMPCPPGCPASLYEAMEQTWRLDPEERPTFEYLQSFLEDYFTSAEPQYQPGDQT

ULK3 = target: T5, ULK3 (UniProt Q6PHR2)
T5 sequence (whole entry): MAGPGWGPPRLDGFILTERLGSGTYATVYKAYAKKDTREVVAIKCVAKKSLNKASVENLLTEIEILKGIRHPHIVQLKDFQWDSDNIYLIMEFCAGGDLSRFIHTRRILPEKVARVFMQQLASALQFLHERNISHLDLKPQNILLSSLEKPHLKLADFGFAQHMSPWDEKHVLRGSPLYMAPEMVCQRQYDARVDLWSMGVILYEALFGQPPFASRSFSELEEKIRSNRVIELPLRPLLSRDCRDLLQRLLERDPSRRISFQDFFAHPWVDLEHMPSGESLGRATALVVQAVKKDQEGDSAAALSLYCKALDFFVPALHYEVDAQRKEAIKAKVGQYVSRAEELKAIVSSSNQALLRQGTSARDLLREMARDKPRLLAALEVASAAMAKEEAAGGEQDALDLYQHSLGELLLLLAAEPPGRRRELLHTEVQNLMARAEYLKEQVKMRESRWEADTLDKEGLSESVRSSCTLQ

pIC50 (NLK): < 4.52
pIC50 (UniProt Q8IW41): < 4.52
pIC50 (UniProt O94804): < 4.52
pIC50 (MARK2): < 4.52
pIC50 (EIF2AK4): < 4.52
pIC50 (PHKG2): < 4.52
pIC50 (UniProt Q8TF76): < 4.52
pIC50 (CAMKK1): 4.6
pIC50 (FGR): < 4.52
pIC50 (ULK3): < 4.52
Compound: CCc1cnn2c(NCc3ccc[n+]([O-])c3)cc(N3CCCC[C@H]3CCO)nc12 [dinaciclib]
